According to US20220226321A1, “INHIBITOR OF MNK FOR THE TREATMENT OF NEUROPATHIC PAIN” (Board of Regents, The University of Texas System, priority 2019, published 2022):
Entries after “also recorded” stand apart in the source; their conditions may differ.

Legend:
[1] = system: mice; assay: marble burying task; format: in vivo, mouse; details: 10 mg/kg p.o. daily for 7 days, vs WT naïve
Description: Marble burying task. The marble burying task was used to assess obsessive compulsive disorder (OCD)-like behaviors as previously described^28. Nineteen marbles were placed on top of 5 cm of standard bedding in a clean cage. A mouse was placed into the cage for 30 minutes and then the number of buried marbles was counted.

[2] = system: paclitaxel-treated mice; assay: mechanical paw withdrawal threshold (von Frey) in paclitaxel-induced CIPN; format: in vivo, mouse; details: for mechanical allodynia / hypersensitivity, acute treatment: 10 mg/kg i.p. after full development of CIPN, 1st and 2nd injection, 1 and 3 hrs
[3] = system: models which harbor activating MyD88 mutations; details: in vivo, multiple models; cited from earlier work
[4] = system: SNI mice; assay: attentional rule-shifting task after SNI; format: in vivo, mouse; details: SNI mice vs SNI+vehicle, 10 mg/kg p.o. 7 days
Description: Surgery. Spared nerve injury (SNI) was performed by the ligation and cutting of the tibial and peroneal branches of the left sciatic nerve trifurcation, leaving the sural branch intact as previously described (Decosterd and Woolf, 2000). Sham surgeries were performed the same way but without cutting the nerve. Mice were allowed to recover for 2 weeks following surgery.
Attentional rule-shifting. Habituation: Mice were handled and gradually food restricted to 90% of their baseline weight over 3 weeks. Habituation took place over 3 days in which food rewards (Cheerio bits) were placed along each arm of a plusmaze. Mice were allowed to freely explore the maze and consume the food for 4 trials per day with a maximum time of 30 minutes per trial. When the mouse had consumed all of the food, the trial ended, and the mouse was returned to a holding cage while the maze was rebaited. The number of food pellets in each arm decreased from 4 to 2 to 1 on each consecutive day of habituation. Turn bias: On the fourth day the inventors assessed the animals' turn bias. Therefore, the plus maze was converted into a T-maze by blocking off one of the arms. Mice were placed in the stem arm (starting arm) and allowed to turn left or right to obtain a food pellet. After the mouse consumed the reward, it was returned to the stem arm and allowed to make another choice. […]

[5] = system: infralimbic cortex; assay: axon initial segment (AIS) length in infralimbic cortex, immunohistochemistry; format: in vivo, mouse; details: 10 mg/kg p.o. daily for 7 days, male SNI mice
Description: Immunohistochemistry. All mice were perfused at 3 weeks post-surgery (the day after rule-shifting). Mice were deeply anesthetized with a mixture of ketamine (80 mg/kg) and xylazine (12 mg/kg; i.p.) and then transcardially perfused with 1× phosphate buffered saline (PBS; 4° C., pH 7.4) followed by 10% formalin in 0.1 M phosphate buffer (PB; 4° C., pH 7.4; 25 mL at a flow rate of […]) using a perfusion pump. Brains were dissected and transferred […] to a 30% sucrose in 0.1M PB. Once the brains sunk in sucrose, they were frozen in OCT over dry ice. Coronal sections (30 μm) were cut using a cryostat and a hole was placed in the left hemisphere to demarcate the left (ipsilateral) hemisphere. Free floating sections were then washed in 0.1M PB, and then incubated in blocking solution (10% Normal Goat Serum, 0.3% Triton-X 100 in 0.1M PB) for 1 hr at room temperature with gentle rocking/agitation. Sections were incubated in primary antibody (mouse-anti-AnkyrinG; UC Davis/NIH NeuroMab Facility, clone N106/36 RRID:AB_10673030; 2 μg/ml working concentration) diluted in blocking solution for 3 hrs at room temperature. […]
Image Analysis. […] For each image, 30 segments were analyzed in layers 2/3 and layers 5/6 of the ipsilateral and contralateral IL in CellSens (Olympus) using the polyline measure tool. […]

[6] = system: cultured mouse DRG neurons; assay: Western blot of cultured primary DRG neurons treated with eFT508; format: cell-based

## Cc1cc(Nc2cc(N)ncn2)c(=O)n2c1C(=O)NC21CCCCC1 [eFT508, Tomivosertib]
[1]
  marble burying: no differences in marble burying; also recorded: performed similarly to naïve and vehicle-controls
[2]; 1 mg/kg, WT mice
  mechanical hypersensitivity (established CIPN), chronic treatment: robust relief of mechanical hypersensitivity; also recorded: reverses established CIPN
  tolerance to repeated dosing: No signs of tolerance; also recorded: without inducing tolerance
[2]; 1 mg/kg, eIF4E^S209A mice
  mechanical hypersensitivity, chronic treatment: completely absent; also recorded: completely without effect
[2]
  mechanical allodynia / hypersensitivity, acute treatment: reversal; also recorded: transiently relieves mechanical allodynia
[2]; listed as eFT08
  mechanical allodynia / hypersensitivity, acute treatment: relieves mechanical allodynia
[3]
  anti-tumor activity: significant anti-tumor activity
[4]
  never-reinforced (NRE) and regressive (REG) type errors: significantly fewer
[5]
  SNI-induced changes in AIS length: reversed
[6]; 1 μM for 1 hr
  RagA protein level: decrease
[6]; 0.1 and 1 μM, 1 hr
  level of eIF4E phosphorylation: significantly reduced
  other signaling pathways: without affecting other signaling pathways
[6]; cultured DRGs neurons
  reduction of eIF4E phosphorylation: 90%
